“And” between values parts separate entries of the source, which are not always exact repeats. Equal values may be shown once. Toxic doses and inconclusive results are not listed. Rule for the calls: active = survival T/C of 150% or more; inactive = T/C below 125% in these data.
Tested on: P388 leukemia ip, CD2F1 mice, survival T/C
Assay: NCI In Vivo Anticancer Drug Screen. Data for tumor model P388 Leukemia (intraperitoneal) in CD2F1 (CDF1) mice
Details: endpoint: median survival time, higher = longer survival
How it was run: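 Mice carrying the transplanted tumor received test compound or vehicle. Survival was recorded in each group, and the value is the treated-group measurement divided by that of the vehicle-treated control group.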

[1] = dose: 50.0 mg/kg/injection, schedule: Q01DX009 (ip), vehicle: saline with Tween-80
[2] = dose: 100.0 mg/kg/injection, schedule: Q01DX009 (ip), vehicle: saline with Tween-80
[3] = dose: 50.0 mg/kg/injection, schedule: Q01DX005 (ip), vehicle: Klucel (hydroxypropylcellulose) (HPC)
[4] = dose: 100.0 mg/kg/injection, schedule: Q01DX005 (ip), vehicle: Klucel (hydroxypropylcellulose) (HPC)
[5] = dose: 200.0 mg/kg/injection, schedule: Q01DX005 (ip), vehicle: Klucel (hydroxypropylcellulose) (HPC)
[6] = dose: 60.0 mg/kg/injection, schedule: Q01DX005 (ip), vehicle: saline with Tween-80
[7] = dose: 120.0 mg/kg/injection, schedule: Q01DX005 (ip), vehicle: saline with Tween-80
[8] = dose: 240.0 mg/kg/injection, schedule: Q01DX005 (ip), vehicle: saline with Tween-80

Measured: T/C

COc1ccc2c(c1)C(=O)OC2
inactive: [1] 102 % of control | [2] 101 % of control | dose: 200.0 mg/kg/injection, schedule: Q01DX009 (ip), vehicle: saline with Tween-80 99 % of control

COc1ccc(CCNC(=O)CC2CC(=O)N(CCc3ccc(OC)c(OC)c3)C(=O)C2)cc1OC
inactive: [3] 101 % of control | [4] 98 % of control | [5] 101 % of control

Oc1cccc(/C=N/N2CCc3ccccc3C2)c1
inactive: dose: 50.0 mg/kg/injection, schedule: Q01DX001 (ip), vehicle: Klucel (hydroxypropylcellulose) (HPC) 96 % of control | dose: 100.0 mg/kg/injection, schedule: Q01DX001 (ip), vehicle: Klucel (hydroxypropylcellulose) (HPC) 100 % of control | dose: 200.0 mg/kg/injection, schedule: Q01DX001 (ip), vehicle: Klucel (hydroxypropylcellulose) (HPC) 92 % of control

COc1cc(OC)c(/C=N/Nc2cc(C)nc3cc4c(cc23)OCO4)c(OC)c1
inactive: dose: 1.56 mg/kg/injection, schedule: Q01DX005 (ip), vehicle: Klucel (hydroxypropylcellulose) (HPC) 106 % of control | dose: 3.12 mg/kg/injection, schedule: Q01DX005 (ip), vehicle: Klucel (hydroxypropylcellulose) (HPC) 97 % of control | dose: 6.25 mg/kg/injection, schedule: Q01DX005 (ip), vehicle: Klucel (hydroxypropylcellulose) (HPC) 102 % of control and 91 % of control | dose: 12.5 mg/kg/injection, schedule: Q01DX005 (ip), vehicle: Klucel (hydroxypropylcellulose) (HPC) 100 % of control and 87 % of control | dose: 25.0 mg/kg/injection, schedule: Q01DX005 (ip), vehicle: Klucel (hydroxypropylcellulose) (HPC) 103 % of control

N=c1nc(-c2ccccc2)c(-c2ccccc2)nn1CC(=O)c1ccccc1
inactive: [3] 112 % of control | [4] 101 % of control | [5] 94 % of control

CCN(CC)Cc1c(C)[nH]c2cc(Cl)ccc2c1=O
inactive: dose: 100.0 mg/kg/injection, schedule: Q01DX001 (ip), vehicle: saline with Tween-80 88 % of control

CC(=O)Nc1ccc(S(=O)(=O)Nc2c(-c3ccccc3)[nH]c(C)c2C(C)=O)cc1
inactive: [6] 102 % of control | [7] 102 % of control | [8] 98 % of control

CCC(=O)c1c(O)c2ccccc2oc1=O
inactive: dose: 15.0 mg/kg/injection, schedule: Q01DX005 (ip), vehicle: saline with Tween-80 104 % of control | dose: 30.0 mg/kg/injection, schedule: Q01DX005 (ip), vehicle: saline with Tween-80 107 % of control | [6] 104 % of control

CCCCC(CCCCCC(CCCC)C1NCCc2cc(OC)c(OC)cc21)C1NCCc2cc(OC)c(OC)cc21 (configuration not stated)
inactive: dose: 6.25 mg/kg/injection, schedule: Q01DX005 (ip), vehicle: saline with Tween-80 91 % of control | dose: 12.5 mg/kg/injection, schedule: Q01DX005 (ip), vehicle: saline with Tween-80 93 % of control | dose: 25.0 mg/kg/injection, schedule: Q01DX005 (ip), vehicle: saline with Tween-80 93 % of control

CCOC(=O)c1nc[nH]c1C
inactive: dose: 50.0 mg/kg/injection, schedule: Q01DX005 (ip), vehicle: saline with Tween-80 100 % of control | dose: 100.0 mg/kg/injection, schedule: Q01DX005 (ip), vehicle: saline with Tween-80 101 % of control | dose: 200.0 mg/kg/injection, schedule: Q01DX005 (ip), vehicle: saline with Tween-80 100 % of control

COC(=O)c1cc(-c2cccc3ccccc23)[nH]c(=O)c1C#N
inactive: [6] 95 % of control | [7] 100 % of control

CCn1c(=O)c2c(N(CCO)CCO)snc2n(CC)c1=O
inactive: dose: 100.0 mg/kg/injection, schedule: Q04DX002 (ip), vehicle: suspension in saline 104 % of control | dose: 200.0 mg/kg/injection, schedule: Q04DX002 (ip), vehicle: suspension in saline 101 % of control | dose: 400.0 mg/kg/injection, schedule: Q04DX002 (ip), vehicle: suspension in saline 102 % of control

Cn1c(=O)c2conc2n(-c2ccc(Cl)cc2)c1=O
inactive: dose: 25.0 mg/kg/injection, schedule: Q01DX009 (ip), vehicle: saline with Tween-80 100 % of control | [1] 103 % of control | [2] 95 % of control

O=C1C(=C(Cl)Cl)C(=O)c2ccccc21
inactive: dose: 12.5 mg/kg/injection, schedule: Q01DX005 (ip), vehicle: saline 103 % of control | dose: 25.0 mg/kg/injection, schedule: Q01DX005 (ip), vehicle: saline 100 % of control | [3] 91 % of control | dose: 50.0 mg/kg/injection, schedule: Q01DX005 (ip), vehicle: saline 95 % of control

CCCCOc1cccc2c(NCCCCCCNc3c4ccccc4nc4c(OCCCC)cccc34)c3ccccc3nc12
inactive: dose: 0.62 mg/kg/injection, schedule: Q## X009 (ip), vehicle: lactic acid 104 % of control | dose: 1.25 mg/kg/injection, schedule: Q## X009 (ip), vehicle: lactic acid 104 % of control | dose: 2.5 mg/kg/injection, schedule: Q## X009 (ip), vehicle: lactic acid 106 % of control | dose: 5.0 mg/kg/injection, schedule: Q## X009 (ip), vehicle: lactic acid 99 % of control

COC(=O)c1cc2c(nn1)C(=O)Nc1ccccc1C2(C)C
inactive: [6] 100 % of control | [7] 105 % of control | [8] 96 % of control

CCCCCCCOc1ccc(C(=O)O)cc1
inactive: dose: 12.5 mg/kg/injection, schedule: Q01DX009 (ip), vehicle: Klucel (hydroxypropylcellulose) (HPC) 105 % of control | dose: 25.0 mg/kg/injection, schedule: Q01DX009 (ip), vehicle: Klucel (hydroxypropylcellulose) (HPC) 111 % of control | dose: 50.0 mg/kg/injection, schedule: Q01DX009 (ip), vehicle: Klucel (hydroxypropylcellulose) (HPC) 107 % of control
